Structures can show the parent of a compound that is named as a salt. Where two headings read alike, the source gives them in different places.
Target: T1, G protein-coupled receptor 119 (GPR-119) (Mesocricetus auratus, UniProt A0A1U8CD06)
T1 construct: hamster-derived β-cells containing G protein-coupled receptor 119 (GPR-119), HIT-T15 cells; host or cells: HIT-T15 (hamster pancreatic β-cells)
T1 sequence (A0A1U8CD06 1-334): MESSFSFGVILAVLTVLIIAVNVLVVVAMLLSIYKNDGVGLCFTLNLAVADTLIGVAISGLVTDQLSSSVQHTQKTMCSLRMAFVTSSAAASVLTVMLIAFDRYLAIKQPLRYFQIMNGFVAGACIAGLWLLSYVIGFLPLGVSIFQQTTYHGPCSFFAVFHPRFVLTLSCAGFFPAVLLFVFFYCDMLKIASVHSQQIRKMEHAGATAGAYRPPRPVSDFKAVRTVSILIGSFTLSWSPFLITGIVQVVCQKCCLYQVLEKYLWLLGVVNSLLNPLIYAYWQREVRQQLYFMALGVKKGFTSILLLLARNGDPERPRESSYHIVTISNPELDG
Assay: Evaluation of cAMP activity in HIT-T15 cells (HTRF cAMP dynamic kit)
Format: cell-based, hamster
Conditions: cAMP activation
Procedure, shortened: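 HIT-T15 cells, 60,000/well, treated next day with compound at six concentrations ([…]) for 1 h at 37° C. Lysate cAMP quantified by HTRF competitive immunoassay (D2-cAMP, cryptate anti-cAMP); activity taken as change in FRET signal relative to DMSO.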

[1] = 1 h at 37° C., six concentrations, read-out: EC50

Row | SMILES | EC50 [1] | EC50 (read-out: EC50 value)
1 | CC(C)(C)OC(=O)N1CCC(COc2ccc(C3=CCC(C(=O)NCC(F)(F)F)CC3)c(F)c2)CC1 (centres unmarked) [Example 142, tert-butyl 4-((3-fluoro-4-(4-(2,2,2-trifluoroethylcarbamoyl)cyclohex-1-enyl)phenoxy)methyl)piperidine-1-carboxylate] | 85 nM | –
2 | CC(C)c1noc(N2CCC(COc3ccc(C4=CCC(C(=O)N5CC[C@@H](CO)C5)CC4)cc3)CC2)n1 (stereo partly drawn) [Example 149, ((R)-3-(hydroxymethyl)pyrrolidin-1-yl)(4-(4-((1-(3-isopropyl-1,2,4-oxadiazol-5-yl)piperidin-4-yl)methoxy)phenyl)cyclohex-3-enyl)methanone] | 23 nM | ≤ 50 nM
3 | CC(C)c1noc(N2CCC(COc3ccc(C4=CCC(C(=O)N5CC[C@H](CO)C5)CC4)cc3)CC2)n1 (stereo partly drawn) [Example 150, ((S)-3-(hydroxymethyl)pyrrolidin-1-yl)(4-(4-((1-(3-isopropyl-1,2,4-oxadiazol-5-yl)piperidin-4-yl)methoxy)phenyl)cyclohex-3-enyl)methanone] | 19 nM | ≤ 50 nM
4 | CCc1cnc(N2CCC(COc3ccc(C4=CCC(C(=O)N5CC[C@H](CO)C5)CC4)cc3)CC2)nc1 (stereo partly drawn) [Example 152, (4-(4-((1-(5-ethylpyrimidin-2-yl)piperidin-4-yl)methoxy)phenyl)cyclohex-3-enyl)((S)-3-(hydroxymethyl)pyrrolidin-1-yl)methanone] | 36 nM | ≤ 50 nM
5 | CCc1cnc(N2CCC(COc3ccc(C4=CCC(C(=O)N5CC[C@H](CO)C5)CC4)cc3)CC2)nc1 (stereo partly drawn) [Example 158, (4-(4-((1-(5-ethylpyrimidin-2-yl)piperidin-4-yl)methoxy)phenyl)cyclohex-3-enyl)((S)-3-(hydroxymethyl)pyrrolidin-1-yl)methanone hydrochloride] | 25 nM | –
6 | CCc1cnc(N2CCC(COc3ccc(C4=CCC(C(=O)N5CC[C@@H](CO)C5)CC4)cc3)CC2)nc1 (stereo partly drawn) [Example 159, (4-(4-((1-(5-ethylpyrimidin-2-yl)piperidin-4-yl)methoxy)phenyl)cyclohex-3-enyl)((R)-3-(hydroxymethyl)pyrrolidin-1-yl)methanone hydrochloride] | 20 nM | ≤ 50 nM
7 | CCc1cnc(N2CCC(COc3ccc(C4=CCC(C(=O)N5CCCC5)CC4)cc3)CC2)nc1 (centres unmarked) [Example 162, (4-(4-((1-(5-ethylpyrimidin-2-yl)piperidin-4-yl)methoxy)phenyl)cyclohex-3-enyl)(pyrrolidin-1-yl)methanone] | 27 nM | ≤ 50 nM
8 | CCc1cnc(N2CCC(COc3ccc(C4=CCC(C(=O)N5CCCC5)CC4)cc3)CC2)nc1 (centres unmarked) [Example 166, (4-(4-((1-(5-ethylpyrimidin-2-yl)piperidin-4-yl)methoxy)phenyl)cyclohex-3-enyl)(pyrrolidin-1-yl)methanone hydrochloride] | 22 nM | –
9 | CCc1cnc(N2CCC(COc3ccc(C4=CCC(C(=O)N5CCN(CCO)CC5)CC4)cc3)CC2)nc1 (centres unmarked) [Example 172, (4-(4-((1-(5-ethylpyrimidin-2-yl)piperidin-4-yl)methoxy)phenyl)cyclohex-3-enyl)(4-(2-hydroxyethyl)piperazin-1-yl)methanone] | 38 nM | –
10 | CCc1cnc(N2CCC(COc3ccc(C4=CCC(C(=O)N5CCC(CCO)CC5)CC4)cc3)CC2)nc1 (centres unmarked) [Example 173, (4-(4-((1-(5-ethylpyrimidin-2-yl)piperidin-4-yl)methoxy)phenyl)cyclohex-3-enyl)(4-(2-hydroxyethyl)piperidin-1-yl)methanone] | 18 nM | –
11 | CCc1cnc(N2CCC(COc3ccc(C4=CCC(C(=O)NCC(C)(C)CO)CC4)cc3)CC2)nc1 (centres unmarked) [Example 177, 4-(4-((1-(5-ethylpyrimidin-2-yl)piperidin-4-yl)methoxy)phenyl)-N-(3-hydroxy-2,2-dimethylpropyl)cyclohex-3-enecarboxamide] | 38 nM | –
12 | CCc1cnc(N2CCC(COc3ccc(C4=CCC(C(=O)N(CCO)CCO)CC4)cc3)CC2)nc1 (centres unmarked) [Example 181, 4-(4-((1-(5-ethylpyrimidin-2-yl)piperidin-4-yl)methoxy)phenyl)-N,N-bis(2-hydroxyethyl)cyclohex-3-enecarboxamide] | 24 nM | ≤ 50 nM
13 | CC(C)c1noc(N2CCC(COc3ccc(C4=CCC(C(=O)N5CCC(O)CC5)CC4)cc3)CC2)n1 (centres unmarked) [Example 182, (4-hydroxypiperidin-1-yl)(4-(4-((1-(3-isopropyl-1,2,4-oxadiazol-5-yl)piperidin-4-yl)methoxy)phenyl)cyclohex-3-enyl)methanone] | 27 nM | ≤ 50 nM
14 | CC(C)c1noc(N2CCC(COc3ccc(C4=CCC(C(=O)N5CCC(CCO)CC5)CC4)cc3)CC2)n1 (centres unmarked) [Example 186, (4-(2-hydroxyethyl)piperidin-1-yl)(4-(4-((1-(3-isopropyl-1,2,4-oxadiazol-5-yl)piperidin-4-yl)methoxy)phenyl)cyclohex-3-enyl)methanone] | – | ≤ 50 nM
15 | CC(C)(C)OC(=O)N1CCC(COc2ccc(C3=CCC(C(=O)NC4CCCC4)CC3)cc2)CC1 (centres unmarked) [Example 195, tert-butyl 4-((4-(4-(cyclopentylcarbamoyl)cyclohex-1-enyl)phenoxy)methyl)piperidine-1-carboxylate] | 28 nM | ≤ 50 nM
16 | CCc1cnc(N2CCC(COc3ccc(C4=CCC(C(=O)N(C)OC)CC4)cc3)CC2)nc1 (centres unmarked) [Example 197, 4-(4-((1-(5-ethylpyrimidin-2-yl)piperidin-4-yl)methoxy)phenyl)-N-methoxy-N-methylcyclohex-3-enecarboxamide] | 18 nM | ≤ 50 nM
17 | CC(C)(C)OC(=O)N1CCC(COc2ccc(C3=CCC(C(=O)N4CCCC4)CC3)cc2)CC1 (centres unmarked) [Example 202, tert-butyl 4-((4-(4-(pyrrolidine-1-carbonyl)cyclohex-1-enyl)phenoxy)methyl)piperidine-1-carboxylate] | 24 nM | ≤ 50 nM
18 | CCN1CCN(C(=O)C2CC=C(c3ccc(OCC4CCN(C(=O)OC(C)(C)C)CC4)cc3)CC2)CC1 (centres unmarked) [Example 203, tert-butyl 4-((4-(4-(4-ethylpiperazine-1-carbonyl)cyclohex-1-enyl)phenoxy)methyl)piperidine-1-carboxylate] | 37 nM | –
19 | CC(C)c1noc(N2CCC(COc3ccc(C4=CCC(C(=O)N5CCc6ccccc6C5C)CC4)cc3)CC2)n1 (centres unmarked) [Example 213, (4-(4-((1-(3-isopropyl-1,2,4-oxadiazol-5-yl)piperidin-4-yl)methoxy)phenyl)cyclohex-3-enyl)(1-methyl-3,4-dihydroisoquinolin-2(1H)-yl)methanone] | 24 nM | ≤ 50 nM

The remaining lines, values ahead:

Row | EC50 [1] | EC50 (read-out: EC50 value) | SMILES
20 | 14 nM | ≤ 50 nM | CCc1cnc(N2CCC(COc3ccc(C4=CCC(C(=O)N5CC[C@H](F)C5)CC4)cc3)CC2)nc1 (stereo partly drawn) [Example 160, (4-(4-((1-(5-ethylpyrimidin-2-yl)piperidin-4-yl)methoxy)phenyl)cyclohex-3-enyl)((S)-3-fluoropyrrolidin-1-yl)methanone]
21 | 6 nM | – | CCc1cnc(N2CCC(COc3ccc(C4=CCC(C(=O)N5CC[C@H](F)C5)CC4)cc3)CC2)nc1 (stereo partly drawn) [Example 161, (4-(4-((1-(5-ethylpyrimidin-2-yl)piperidin-4-yl)methoxy)phenyl)cyclohex-3-enyl)((S)-3-fluoropyrrolidin-1-yl)methanone hydrochloride]
22 | 7 nM | ≤ 50 nM | CCc1cnc(N2CCC(COc3ccc(C4=CCC(C(=O)N5CCCCC5)CC4)cc3)CC2)nc1 (centres unmarked) [Example 163, (4-(4-((1-(5-ethylpyrimidin-2-yl)piperidin-4-yl)methoxy)phenyl)cyclohex-3-enyl)(piperidin-1-yl)methanone]
23 | 16 nM | ≤ 50 nM | CCc1cnc(N2CCC(COc3ccc(C4=CCC(C(=O)N5CCC(O)CC5)CC4)cc3)CC2)nc1 (centres unmarked) [Example 164, (4-(4-((1-(5-ethylpyrimidin-2-yl)piperidin-4-yl)methoxy)phenyl)cyclohex-3-enyl)(4-hydroxypiperidin-1-yl)methanone]
24 | 7 nM | ≤ 50 nM | CCc1cnc(N2CCC(COc3ccc(C4=CCC(C(=O)N5CCC(CO)CC5)CC4)cc3)CC2)nc1 (centres unmarked) [Example 165, (4-(4-((1-(5-ethylpyrimidin-2-yl)piperidin-4-yl)methoxy)phenyl)cyclohex-3-enyl)(4-(hydroxymethyl)piperidin-1-yl)methanone]
25 | 14 nM | – | CCc1cnc(N2CCC(COc3ccc(C4=CCC(C(=O)N5CCCCC5)CC4)cc3)CC2)nc1 (centres unmarked) [Example 167, (4-(4-((1-(5-ethylpyrimidin-2-yl)piperidin-4-yl)methoxy)phenyl)cyclohex-3-enyl)(piperidin-1-yl)methanone hydrochloride]
26 | 7 nM | ≤ 50 nM | CCc1cnc(N2CCC(COc3ccc(C4=CCC(C(=O)N(CC)CCO)CC4)cc3)CC2)nc1 (centres unmarked) [Example 175, N-ethyl-4-(4-((1-(5-ethylpyrimidin-2-yl)piperidin-4-yl)methoxy)phenyl)-N-(2-hydroxyethyl)cyclohex-3-enecarboxamide]
27 | 12 nM | ≤ 50 nM | CC(C)c1noc(N2CCC(COc3ccc(C4=CCC(C(=O)N5CCC(CO)CC5)CC4)cc3)CC2)n1 (centres unmarked) [Example 183, (4-(hydroxymethyl)piperidin-1-yl)(4-(4-((1-(3-isopropyl-1,2,4-oxadiazol-5-yl)piperidin-4-yl)methoxy)phenyl)cyclohex-3-enyl)methanone]
